Source: US11160885B2, “Phospholipid composition and microbubbles and emulsions formed using same” (Microvascuar Therapeutics LLC, priority 2014, dated 2021)

Key:
[1] = cited from earlier work
[2] = Ionization of DPPA as a function of pH; type: physicochemical
Source text: As those skilled in the art will appreciate, DPPA comprises two acidic protons. The pKa for the second acidic proton is about 7.9. FIG. 1 graphically depicts the ionization of DPPA as a function of pH. Curve 110 recites the percent of mono-anion 6 present, and curve 120 recites the percent of di-anion 7 present. At a pH of about 4 and higher, the combined percentages of mono-anion 6 and di-anion 7 total 100.
At a pH of about 7.9, DPPA comprises about 50 percent mono-anion 7 and about 50 percent di-anion 8. At a pH of about 7.0, DPPA comprises about 85 percent mono-anion 7 and about 15 percent di-anion 8.

percent di-anion ([2]; pH of about 7.0): about 15% | percent mono-anion ([2]; pH of about 7.0): about 85% | percent di-anion ([2]; pH of about 7.9): about 50% | percent mono-anion ([2]; pH of about 7.9): about 50%
Compound: CCCCCCCCCCCCCCCC(=O)OC[C@H](COP(=O)(O)O)OC(=O)CCCCCCCCCCCCCCC [DPPA, dipalmitoylphosphatidic acid]
pKa for the second acidic proton [1]: about 7.9
